Experimental data: patent publication US6863865B2, “Sterilization of pharmaceuticals” (Breath Limited, priority 2000, dated 2005)

What was measured:
[1] = HPLC evaluation of impurities after high temperature short time (HTST) sterilization; assay type: physicochemical; conditions: Fo exposures up to 24
Description: The formulation to be sterilized was passed through narrow lines of pharmaceutical quality stainless steel in which the sample was rapidly raised to an elevated temperature, maintained at this holding temperature for a period of time, then rapidly returned to ambient temperature. Parameters described in Table 1 are the BMRT (bulk mean retention time), that is the time between the sample being raised above ambient temperature and being returned to ambient temperature, and the FFERT, the time for which the sample is maintained at the elevated temperature. […] The theoretical kill rate, Fo, may be calculated from the FFERT and the elevated temperature. The value of Fo is optimally greater than 10, but values greater than 8 are acceptable for the production of sterile formulations.
This example was carried out to evaluate the effect of HTST on the chemical purity of pharmaceutical preparations by assessing the levels of degradation obtained in samples exposed to varying Fo (effective killing times) times. For the purposes of these experiments, budesonide suspensions were used in the evaluation.
The samples were then evaluated using high performance liquid chromatography to assess the level of impurities present.

[2] = Treatment with high intensity light (Pure-bright process); assay type: physicochemical; conditions: light at 900 times the intensity of sunlight at sea level; formulations produced as in Example 1
Description: An alternative method of sterilization of a budesonide suspension is treatment with high intensity light. The so-called “Pure-bright” process allows treatment with light at 900 times the intensity of sunlight at sea level.

[3] = cited from earlier work

stability of budesonide to high intensity light [2]: completely destroyed
SMILES: CCCC1O[C@@H]2C[C@H]3[C@@H]4CCC5=CC(=O)C=C[C@]5(C)[C@H]4[C@@H](O)C[C@]3(C)[C@]2(C(=O)CO)O1 (stereo partly drawn) [budesonide]
effect on chemical stability [1]: no adverse effect | stability to gamma-irradiation [3]: destroyed
